Laboratory results published in article PMC8540821, “Estimation of the Difference in Colistin Plasma Levels in Critically Ill Patients with Favorable or Unfavorable Clinical Outcomes” (Pharmaceutics, 2021).
Like-named read-outs stand apart in the source and are kept apart here. Where a SMILES comes first, the peptide text is derived from it. Bridges are numbered along the chain shown (N, C = ends). [ ]: non-standard residue; d: D form. The star is where a group is joined. X1 = CC[C@H](C)CCCCC(=O)*; Dab = NCC[C@H](N)C(=O)O

How the values were obtained:
[1] = clinical; conditions: human, in vivo, plasma Cmin, fourth day of treatment, HPLC-UV, median (IQR), read-out: Colistin levels, Median, IQR
Protocol: The doses were prescribed by the treating physician based on the institution’s drug-therapeutic guidelines (load of 1 mg/kg and maintenance of 3 mg/kg per day, divided into three doses). Measurement of the colistin concentration in plasma was performed on the fourth day of treatment, when it was assumed that the colistin concentrations would have reached a steady state. Colistin plasma concentrations (Cmin) were measured just before CMS administration. Cmin was chosen because it is more convenient from a practical point of view. Clinical outcomes were classified as (a) favorable (absence of fever (T < 38 °C); leukocytosis <12,000; not requiring vasopressors; in infections in which control cultures could be obtained, these cultures must be sterile within 7 days of treatment and without changes in the initial antimicrobial regimen within of the first 7 days of treatment. In addition, mortality at 30 days was measured as a secondary outcome; or (b) unfavorable (in the case of fever > 38 °C; leukocytosis > 12,000; requirement for a vasopressor or the presence of positive control cultures for the initial microorganism). The clinical outcomes were determined by consensus of at least two physicians on the study team. If all the criteria were met, the patient was assigned as having a favorable outcome; if one criterion was not met, the outcome was considered not favorable. […]

[2] = system: multiresistant Gram-negative carbapenemase-producing bacteria; experiment: Clinical outcome at day 7 and 30-day mortality in patients treated with CMS; type: in vivo, human
Protocol: This prospective observational study was conducted from September 2017 and June 2020 at a university clinic in the Hospitalization and Critical Care services. The participation of patients in the study was according to the proposed inclusion criteria. Patients over 18 years old, hospitalized for infections caused by multiresistant Gram-negative carbapenemase-producing bacteria, diagnosed in hospital at the clinic of the University of La Sabana, who had been treated with CMS for at least 7 days at the institution, were included. […] Detailed demographic (age, sex, weight), clinical (site of infection, severity of disease, comorbidities (Charlson comorbidity index), CMS loading dose, CMS maintenance dose, duration of treatment, days of stay in the hospital, mortality, carbapenemase class, concomitant antibiotic therapy), laboratory (hemoglobin, red blood cell, neutrophil and platelet counts, serum creatinine and glomerular filtration rate (GFR)), and microbiological (bacterial isolation and characterization) data from each patient were recorded.
The doses were prescribed by the treating physician based on the institution’s drug-therapeutic guidelines (load of 1 mg/kg and maintenance of 3 mg/kg per day, divided into three doses). Measurement of the colistin concentration in plasma was performed on the fourth day of treatment, when it was assumed that the colistin concentrations would have reached a steady state. Colistin plasma concentrations (Cmin) were measured just before CMS administration. Cmin was chosen because it is more convenient from a practical point of view. Clinical outcomes were classified as (a) favorable (absence of fever (T < 38 °C); leukocytosis <12,000; not requiring vasopressors; in infections in which control cultures could be obtained, these cultures must be sterile within 7 days of treatment and without changes in the initial antimicrobial regimen within of the first 7 days of treatment. In addition, mortality at 30 days was measured as a secondary outcome; or (b) unfavorable (in the case of fever > 38 °C; leukocytosis > 12,000; requirement for a vasopressor or the presence of positive control cultures for the initial microorganism). The clinical outcomes were determined by consensus of at least two physicians on the study team. If all the criteria were met, the patient was assigned as having a favorable outcome; if one criterion was not met, the outcome was considered not favorable.

[3] = Acute kidney injury / renal failure (serum creatinine increase above 0.3 mg/dl in 48 h) by colistin level; type: in vivo, human; conditions: high colistin levels n = 2
Protocol: Regarding the incidence of renal failure, defined as an increase in serum creatinine above 0.3 mg/dl in 48 h, this occurred in 20.7% of patients with low colistin levels, in 50% of patients with normal colistin levels, and in 50% of patients with high colistin levels (Table 5).

[4] = system: P. aeruginosa; experiment: Susceptibility of clinical isolates (VITEK 2; MIC by broth dilution on microplate); type: cell-based, Pseudomonas aeruginosa
Source text: (§1) The bacterial isolates were recovered in MacConkey agar (Oxoid-Thermo Scientific®, Hampshire, UK) and sent to the Bacterial Molecular Genetics Laboratory in AMIES transport media (COPAN). […] The MICs of meropenem, amikacin, and colistin were established by the broth dilution method on a microplate. E. coli ATCC® 25922^TM and P. aeruginosa ATCC® 27853^TM strains was used as a susceptibility control (American Type Culture Collection). Finally, the carbapenemase genes blaIMP, blaOXA-48, blaVIM, blaGES, blaKPC, and blaNDM were assessed by multiplex PCR [45].

[5] = system: K. pneumoniae; experiment: as above; type: cell-based, Klebsiella pneumoniae
Source text: as §1

[6] = system: P. putida; experiment: as above; type: cell-based, Pseudomonas putida
Source text: as §1

[7] = system: A. baumannii; experiment: as above; type: cell-based, Acinetobacter baumannii; conditions: n = 1, favorable outcome
Source text: as §1

[8] = system: E. cloacae; experiment: as above; type: cell-based, Enterobacter cloacae; conditions: n = 1, favorable outcome
Source text: as §1

[9] = system: E. coli; experiment: as above; type: cell-based, Escherichia coli; conditions: n = 1, favorable outcome
Source text: as §1

[10] = system: C. freundii; experiment: as above; type: cell-based; conditions: n = 1, unfavorable outcome
Source text: as §1

[11] = cited from earlier work
Source text: Colistin has been clinically available since the 1950s, but it soon fell into disuse, mainly due to its nephrotoxic potential. Alongside its nephrotoxicity, which ranges between 0 and 58% in different studies, some evidence has found the incidence of peripheral neuropathy may be up to 50% with its use, as the main manifestation of neurotoxicity. The lack of other available options has increased the use of colistin in MDR infections, even with its safety profile. The pharmacokinetics of colistin are complex. Colistin is available as a sulfate and as sodium colis ...

[12] = isolates from patients with favorable outcome n = 10
[13] = isolates from patients with unfavorable outcome n = 14

Structure (SMILES): CC[C@H](C)CCCCC(=O)N[C@@H](CCN)C(=O)N[C@H](C(=O)N[C@@H](CCN)C(=O)N[C@H]1CCNC(=O)[C@H]([C@@H](C)O)NC(=O)[C@H](CCN)NC(=O)[C@H](CCN)NC(=O)[C@H](CC(C)C)NC(=O)[C@@H](CC(C)C)NC(=O)[C@H](CCN)NC1=O)[C@@H](C)O [colistin] (X1-[Dab]T[Dab][Dab][Dab][dL]L[Dab][Dab]T; lactam 4-C)
- level at 96 h ([1]; favorable clinical outcome n = 34, p = 0.167 vs unfavorable): 160 ng/mL
- level at 96 h ([1]; unfavorable clinical outcome n = 23): 540 ng/mL
- 30 days mortality, n, % ([2]; high colistin levels n = 2 (>4 µg/mL)): 0 (0%) n, %
- 30 days mortality, n, % ([2]; normal colistin levels n = 2 (2 to 4 µg/mL)): 0 (0%) n, %
- Favorable clinical outcomes ([2]; patients with colistin levels within the normal range): 50%
- Favorable clinical outcomes ([2]; patients with levels above the limit of normality): 50%
- Favorable clinical outcomes ([2]; patients with low colistin levels): 60%
- Acute kidney injury, n, % [3]: 1 (50%) n, %
- isolates I (intermediate), n (%) [4, 12]: 4 (40) n (%)
- isolates R (resistant), n (%) [4, 12]: 4 (40) n (%)
- isolates S (susceptible), n (%) [4, 12]: 2 (20) n (%)
- isolates I (intermediate), n (%) [4, 13]: 6 (42.8) n (%)
- isolates R (resistant), n (%) [4, 13]: 7 (50) n (%)
- isolates S (susceptible), n (%) [4, 13]: 1 (7.14) n (%)
- isolates I (intermediate), n (%) ([5]; favorable outcome n = 3): 1 (33.3) n (%)
- isolates R (resistant), n (%) ([5]; favorable outcome n = 3): 2 (66.7) n (%)
- isolates S (susceptible), n (%) ([5]; favorable outcome n = 3): 0 (0) n (%)
- isolates I (intermediate), n (%) ([5]; unfavorable outcome n = 2): 0 (0) n (%)
- isolates R (resistant), n (%) ([5]; unfavorable outcome n = 2): 0 (0) n (%)
- isolates S (susceptible), n (%) ([5]; unfavorable outcome n = 2): 2 (100) n (%)
- isolates I (intermediate), n (%) ([6]; favorable outcome n = 1): 1 (100) n (%)
- isolates R (resistant), n (%) ([6]; favorable outcome n = 1): 0 (0) n (%)
- isolates S (susceptible), n (%) ([6]; favorable outcome n = 1): 0 (0) n (%)
- isolates I (intermediate), n (%) ([6]; unfavorable outcome n = 1): 0 (0) n (%)
- isolates R (resistant), n (%) ([6]; unfavorable outcome n = 1): 0 (0) n (%)
- isolates S (susceptible), n (%) ([6]; unfavorable outcome n = 1): 1 (100) n (%)
- isolates I (intermediate), n (%) [7]: 1 (100) n (%)
- isolates R (resistant), n (%) [7]: 0 (0) n (%)
- isolates S (susceptible), n (%) [7]: 0 (0) n (%)
- isolates I (intermediate), n (%) [8]: 0 (0) n (%)
- isolates R (resistant), n (%) [8]: 1 (100) n (%)
- isolates S (susceptible), n (%) [8]: 0 (0) n (%)
- isolates I (intermediate), n (%) [9]: 1 (100) n (%)
- isolates R (resistant), n (%) [9]: 0 (0) n (%)
- isolates S (susceptible), n (%) [9]: 0 (0) n (%)
- isolates I (intermediate), n (%) [10]: 1 (100) n (%)
- isolates R (resistant), n (%) [10]: 0 (0) n (%)
- isolates S (susceptible), n (%) [10]: 0 (0) n (%)
- calculated volume of distribution [11]: 0.34 L/kg
- half-life [11]: 4.18 h
